We go through 5 molecules from PMC8143291, “Cytotoxicity and Microbicidal Activity of Commonly Used Organic Solvents: A Comparative Study and Application to a Standardized Extract from Vaccinium macrocarpon” (Toxics, 2021).

Data set [1] deals with breast cancer, mouse macrophage and human umbilical vein endothelial cells. Further details: method as in doi:10.17795/ajmb-33453. The note with it: cited from earlier work.
The subject of data set [2] is E. coli ATCC 35218. As to the kind of experiment: Broth microdilution MIC/MBC. Type of data set: cell-based, Escherichia coli. To be noted: 24 h exposure, v/v, n = 3. An excerpt: (§1) The bacterial strains used for AST of the solvents included: Staphylococcus aureus (ATCC 29213), Staphylococcus aureus—MRSA (NBIMCC 8327—resistant to methicillin and oxacillin, National Bulgarian Collection for Industrial Microorganisms and Cell Cultures, Sofia, Bulgaria), Streptococcus pyogenes (SAIMC 10535, Collection of the Stephan Angeloff Institute of Microbiology, Sofia, Bulgaria), Enterococcus faecalis (ATCC 29212), Escherichia coli (ATCC 35218), Pseudomonas aeruginosa (ATCC 27853), and Yersinia enterocolitica (IP864 O:3, Collection of Institut Pasteur, Paris, France). The selected strains are the most often investigated ones in the AST research studies in correspondence with the standard ISO 20776-1 Part 1: Reference method for testing the in vitro activity of antimicrobial agents against rapidly growing aerobic bacteria involved in infectious diseases. The antimycotic activity was tested on Candida albicans (CBS 562, Utrecht, The Netherlands). The strains S. aureus, MRSA, E. coli and E. faecalis were grown on Mueller–Hinton broth/agar (MHB/MHA); S. pyogenes, P. aeruginosa, Y. enterocolitica and C. albicans were grown on brain heart infusion (BHI) broth/agar; E. coli was also grown on Luria–Bertani broth/agar (LBB/LBA).
(§2) The minimum inhibitory concentration (MIC) for each solvent was estimated by the broth microdilution method (BMD) in 96-well microplates, following ISO 20776/1-2006 [3] and CLSI protocols. Briefly, a standardized bacterial inoculum was prepared from each bacterial species by suspending 3–4 colonies from a pure culture into 4 mL sterile saline. The turbidity of the inocula was adjusted to McFarland 0.5 (1.0 × 10^8 CFU/mL, λ = 600 nm), and 50 µL were resuspended in 10 mL of the appropriate culture medium for each strain. The bacterial inocula were added to microtiter trays containing equivalent volumes of medium loaded with the relevant solvent in concentrations varying from 0.025 to 25% volume fraction. The final volume of each sample was 100 µL/well. The plates were incubated at 37 °C for 24 h. The pure culture medium served as a negative control. Every MIC was evaluated visually as the lowest concentration without visible growth. […] MBC was defined as the lowest compound’s concentration reducing the colony growth of the initial bacterial inoculum by ≥ 99.9%.

The test system of data set [3] is S. pyogenes SAIMC 10535. As to the kind of experiment: Dehydrogenase activity (DEHA) MTT test after BMD. To be noted: 24 h exposure; % against untreated control; ± SD; n = 3. Type of data set: cell-based, Streptococcus pyogenes. As for the experimental part:
(§3) The cell dehydrogenase (DEHA, redox, metabolic) activity of all samples was measured at the end of the BMD assay, based on reducing the MTT dye to formazan by the membrane located bacterial enzyme NADH: ubiquinone reductase (H^+-translocation). The protocol of Wang et al. was applied after minor modifications. Briefly, each sample was incubated for 120 min at 37 °C with MTT at a final concentration of 0.5 mg/mL in the culture medium. The resulting non-soluble violet formazan crystals were dissolved with an equal volume of 2-propanol supplemented with 5% formic acid. The absorbance was measured at 550 nm against a blank solution containing the respective volumes of MHB and MTT.
(§4) The cell viability is presented as a percentage of the untreated control. At least four wells were seeded for every concentration. Three independent assays were performed (n = 3). […] The respiratory activity of the bacterial cultures was calculated as a percentage against the untreated control.
(In general: Tetrazolium assays rely on reduction of a dye to a coloured formazan, in cell work by metabolically active cells.)

Data set [4] has as its system Candida Albicans SAIMC 562. As to the kind of experiment: Broth microdilution MIC/MBC. To be noted: 24 h exposure; v/v; n = 3. Type of data set: cell-based.
Text: as §1, with “The antimycotic activity was tested on Candida albicans (CBS 562, Utrecht, The Netherlands).” left out
as §2
A general note: In broth dilution the organism is exposed to a series of concentrations in liquid medium.

The subject of data set [5] is S. Aureus ATCC 29213. Put plainly: Dehydrogenase activity (DEHA) MTT test after BMD. Type of data set: cell-based, Staphylococcus aureus. The note with it: 24 h exposure; % against untreated control; ± SD; n = 3. As for the experimental part: as §3, §4
Data set [6] has as its system E. faecalis ATCC 29212. Put plainly: Broth microdilution MIC/MBC. To be noted: 24 h exposure; v/v; n = 3. It counts as cell-based, Enterococcus faecalis.
Text: as §1, §2

In data set [7] the test system is Y. enterocolitica IP 864 O: 3. As to the kind of experiment: Broth microdilution MIC/MBC. It counts as cell-based, Yersinia enterocolitica. The note with it: 24 h exposure; v/v; n = 3.
Text: as §1, §2

The test system of data set [8] is Candida Albicans SAIMC 562. Put plainly: Dehydrogenase activity (DEHA) MTT test after BMD. Type of data set: cell-based. The note with it: 24 h exposure; % active cells against untreated control; ± SD; n = 3. As for the experimental part: as §3
(§5) The IC50 values from the MTT assay were evaluated with a non-linear regression analysis (Curve fit, GraphPad Prizm 6.01 software, GraphPad Software Inc., San Diego, CA, USA) using sigmoidal concentration–response curves. The cell viability is presented as a percentage of the untreated control. […] The maximum tolerated concentration (MTC) for the cell lines was determined from three independent assays according to ISO 10993-5 as the maximum concentration at which at least 70% of the cells were viable (nonlin fit, range, GraphPad Prizm 6.01 software) GraphPad Software Inc., San Diego, CA, USA). […] The respiratory activity of the bacterial cultures was calculated as a percentage against the untreated control.

For data set [9] the following is noted: no reference given; cited from earlier work.
Data set [10] has as its system P. aeruginosa ATCC 27853. As to the kind of experiment: Broth microdilution MIC/MBC. Type of data set: cell-based, Pseudomonas aeruginosa. To be noted: 24 h exposure; v/v; n = 3.
Text: as §1, §2

Data set [11] concerns Y. enterocolitica IP 864 O: 3. Put plainly: Dehydrogenase activity (DEHA) MTT test after BMD. Type of data set: cell-based, Yersinia enterocolitica. The note with it: 24 h exposure; % against untreated control; ± SD; n = 3. As for the experimental part:
as §3
The IC50 values from the MTT assay were evaluated with a non-linear regression analysis (Curve fit, GraphPad Prizm 6.01 software, GraphPad Software Inc., San Diego, CA, USA) using sigmoidal concentration–response curves. The cell viability is presented as a percentage of the untreated control. At least four wells were seeded for every concentration. Three independent assays were performed (n = 3). The maximum tolerated concentration (MTC) for the cell lines was determined from three independent assays according to ISO 10993-5 as the maximum concentration at which at least 70% of the cells were viable (nonlin fit, range, GraphPad Prizm 6.01 software) GraphPad Software Inc., San Diego, CA, USA). To compare the MTC values of the solvents for each cell line, the ordinary One-way ANOVA statistical analysis based on Tukey’s multiple comparisons test with a single pooled variance (GraphPad Prizm 6.01 software) GraphPad Software Inc., San Diego, CA, USA) was utilized, and p ≤ 0.05 was set as a significance level. The respiratory activity of the bacterial cultures was calculated as a percentage against the untreated control.

Data set [12] concerns S. Aureus ATCC 29213. As to the kind of experiment: Broth microdilution MIC/MBC. It counts as cell-based, Staphylococcus aureus. To be noted: 24 h exposure; v/v; n = 3.
Text: as §1, §2

Data set [13] has as its system S. Aureus MRSA NBIMCC 8327. Put plainly: Broth microdilution MIC/MBC. Type of data set: cell-based, Staphylococcus aureus. The note with it: 24 h exposure; v/v; n = 3.
Text: as §1, §2

Data set [14] relates to S. pyogenes SAIMC 10535. Put plainly: Broth microdilution MIC/MBC. It counts as cell-based, Streptococcus pyogenes. To be noted: 24 h exposure; v/v; n = 3.
Text: as §1, §2

Data set [15] concerns Chinese hamster liver cell line. To be noted: cited from earlier work.
For data set [16], the system named is E. faecalis ATCC 29212. Put plainly: Dehydrogenase activity (DEHA) MTT test after BMD. Type of data set: cell-based, Enterococcus faecalis. To be noted: 24 h exposure; % against untreated control; ± SD; n = 3. As for the experimental part:
as §3, §4

In data set [17] the test system is E. coli ATCC 35218. Put plainly: Dehydrogenase activity (DEHA) MTT test after BMD. Type of data set: cell-based, Escherichia coli. The note with it: in MHB; 24 h exposure; % against untreated control; ± SD; n = 3. As for the experimental part:
as §3, §5

For data set [18], the system named is P. aeruginosa ATCC 27853. As to the kind of experiment: Dehydrogenase activity (DEHA) MTT test after BMD. It counts as cell-based, Pseudomonas aeruginosa. To be noted: 24 h exposure; % against untreated control; ± SD; n = 3. As for the experimental part:
as §3, §4

In data set [19] the test system is S. epidermidis. Further details: method as in doi:10.5580/b43. The note with it: in the presence of 6% solvent; cited from earlier work.

Several values for one entry are separate records, joined by “and”; a condition that tells them apart may be missing. Equal values may be shown once.

For `CC(C)=O` [acetone], in [1], the “maximum tolerated concentration (MTC) / applicable concentration” value was “up to 0.5 % v/v”.

`COCCOC` [DME, 1,2-dimethoxyethane]: the MBC in [2] (in LBB) was found to be 6.25%; in data set [2] (in MHB), 12.5%; in data set [4], 25%; in data set [6], 12.5%; in [7], 6.25%; in data set [10], 12.5%. Further, the MBC was 12.5% in data set [12], 3.125% in [13] and above 25% in data set [14]. The MIC in data set [2] (in LBB) worked out at 3.125%; in [2] (in MHB), 12.5%; in data set [4] it was 12.5%; in data set [6], 12.5%; in data set [7] it was 3.125%; in data set [10] it was 12.5%. In addition, the values for the MIC in data set [12], in [13] and in [14] were 6.25%, 3.125% and 6.25%, respectively. Besides, the “DEHA (dehydrogenase activity)” value in [3] is 31.32 ± 0.05%; in [5] it was 12.54 ± 0.03%; in [8], 31.23% and 31.23 ± 0.01%; in data set [11], 49.04 ± 0.005%. Besides, in data set [9], the “Experimental logP” value was −0.21.

Turning to PEG-200, the clastogenic concentrations in [15] is 5 to 7 mM.

As to `COCCO` [MEtOH, 2-methoxyethanol], the MBC in data set [2] (in LBB) was 12.5%; in data set [2] (in MHB), 25%; in data set [4], 12.5%; in data set [6], above 25%; in data set [7], 25%; in data set [10] it was 25%. Moreover, the MBC in data set [12] is reported as above 25%; in [13] it was 25%; in data set [14] it was above 25%. For the same molecule, the MIC in data set [2] (in LBB) stood at 12.5%; in data set [2] (in MHB), 12.5%; in data set [4], 6.25%; in [6], 12.5%; in data set [7] it was 12.5%; in data set [10] it was 6.25%. The MIC in [12] was determined as 25%; in [13], 25%; in data set [14] it was 12.5%. Also, the “DEHA (dehydrogenase activity)” value in [3] is 28.02 ± 0.02%; in [5], 10.27 ± 0.01%; in data set [16], 25.60 ± 0.04%; in data set [8], 77.41 ± 0.03%; in [17], 5.86 ± 0.005%; in data set [11], 11.76 ± 0.004%. For the same molecule, the “DEHA (dehydrogenase activity)” value in data set [18] worked out at 20.23 ± 0.06%. The “Experimental logP” value in [9] was −0.77.

Consider `CO` [MeOH, methanol], for which the MBC in data set [2] (in LBB), in [2] (in MHB), in data set [4], in [6], in data set [7] and in data set [10] was above 25% throughout. The MBC in data set [12], in data set [13] and in data set [14] was above 25% in each case. Further, the MIC in data set [2] (in LBB), in [2] (in MHB), in data set [4], in data set [6], in [7] and in data set [10] was above 25% throughout. The MIC in data set [12], in data set [13] and in data set [14] was above 25% each time. For the same molecule, the “Experimental logP” value in data set [9] is reported as −0.77. In addition, the survival in data set [19] is given as 26%.
